Results on 13 molecules are retold here after patent publication US8399482B2, “6-substituted isoquinolines and isoquinolinones” (Sanofi, priority 2008, dated 2013).

Each structure is given as a SMILES string.

Common to all, as to format: biochemical
Assay [1] concerns the target T1, human recombinant ROCK II (Homo sapiens, UniProt O75116).
T1 construct: recombinant human ROCK-II residues 11-552; His6 (N); purchased Millipore GmbH, Schwalbach, Germany
The assay is described as follows: Determination of Rho kinase inhibition (ROCK II, Caliper peptide phosphorylation assay). The conditions noted are these: respective form (salt or free base) as obtained in the examples, 60 min at 32° C. On the procedure: To measure Rho-kinase inhibition, IC50 values were determined according to the following protocol:
Active human recombinant ROCK II (N-terminal His6-tagged recombinant human ROCK-II residues 11-552) was purchased from Millipore GmbH, Schwalbach, Germany. The peptide substrate, Fluorescein-[…]-COOH, was obtained from JPT Peptide Technologies, Berlin, Germany. Adenosine-5′-triphosphate (ATP), bovine serum albumine (BSA), dimethylsulphoxide (DMSO), 4-(2-hydroxyethyl)piperazine-1-ethanesulfonic acid (Hepes), Brij-35, dithiothreitol (DTT) and Pluronic F-68 were purchased from Sigma-Aldrich, Munich, Germany. Tris(hydroxymethyl)-aminomethane (Tris), magnesium chloride, NaOH, 1M HCl and EDTA were obtained from Merck Biosciences, Darmstadt, Germany. “Complete” protease inhibitor was from Roche Diagnostics, Mannheim, Germany. Test compounds were diluted to the appropriate concentrations in buffer 1 (25 mM Tris-HCl, pH 7.4, 5 mM MgCl2, 2 mM DTT, 0.02% (w/v) BSA, 0.01% Pluronic F-68 and 3% DMSO). The ROCK II enzyme was diluted to a concentration of 100 ng/mL in buffer 2 (25 mM Tris-HCl, pH 7.4, 5 mM MgCl2, 2 mM DTT and 0.02% (w/v) BSA). The peptide substrate and ATP were diluted to concentrations of 3 μM and 120 μM, respectively, in the buffer 2. Two μl of the compound solution were mixed with 2 μl of the diluted enzyme in a 384-well small volume microtiter plate (Greiner, Bio-One, Frickenhausen, Germany), and the kinase reaction was initiated by addition of 2 μl of the solution containing peptide substrate and ATP. After 60 min incubation at 32° C., the reaction was stopped by addition of 20 μl of a solution containing 100 mM Hepes-NaOH, pH 7.4, 0.015% (v/v) Brij-35, 45 mM EDTA and 0.227% chip coating reagent 1 (Caliper Lifescience Inc, Hopkinton, Mass.). Phosphorylation of the substrate peptide was then detected on a Caliper 3000 instrument essentially as described by Pommereau et al (J. Biomol. Screening 2004, 9(5), 409-416). Separation conditions were as follows: Pressure −1.3 psi, upstream voltage −1562 V, downstream voltage −500 V, sample sip time 200 ms. Positive controls (buffer 1 instead of compound) and negative controls (buffer 1 instead of compound and buffer 2 instead of ROCK II) were run in parallel on each plate.
The following products/compounds were tested in said assay by using the respective form (salt or free base) obtained as in the examples described above and the following activities were measured

Assay [2] addresses T2, recombinant human PKG1-beta (Homo sapiens, UniProt Q13976).
T2 construct: PKG1-beta (full-length, with N-terminal His-tag); His-tag (N); purchased Millipore GmbH, Schwalbach, Germany
T2 sequence (Q13976 1-686 isoform Q13976-2): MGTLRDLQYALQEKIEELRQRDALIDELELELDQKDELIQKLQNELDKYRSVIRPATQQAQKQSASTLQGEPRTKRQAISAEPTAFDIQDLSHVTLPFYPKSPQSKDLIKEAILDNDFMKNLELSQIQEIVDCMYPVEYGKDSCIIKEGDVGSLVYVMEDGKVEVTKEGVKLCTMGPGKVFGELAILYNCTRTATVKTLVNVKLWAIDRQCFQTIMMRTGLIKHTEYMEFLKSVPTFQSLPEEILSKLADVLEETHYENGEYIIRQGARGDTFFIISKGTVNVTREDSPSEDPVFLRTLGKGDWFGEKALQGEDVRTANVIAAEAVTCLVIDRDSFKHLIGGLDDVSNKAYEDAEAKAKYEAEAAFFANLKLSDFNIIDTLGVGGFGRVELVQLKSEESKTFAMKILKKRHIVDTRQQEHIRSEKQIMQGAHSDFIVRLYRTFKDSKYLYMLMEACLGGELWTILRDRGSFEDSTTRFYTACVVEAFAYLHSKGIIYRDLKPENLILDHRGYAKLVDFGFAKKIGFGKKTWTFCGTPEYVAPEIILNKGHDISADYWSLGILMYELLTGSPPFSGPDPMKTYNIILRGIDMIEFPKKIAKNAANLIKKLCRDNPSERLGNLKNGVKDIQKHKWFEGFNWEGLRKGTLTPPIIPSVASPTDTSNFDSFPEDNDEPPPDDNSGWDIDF
Description: Determination of Protein Kinase G inhibition (selectivity). Particulars: from IC50 values. On the procedure: (§1) 2) Determination of Protein Kinase a and Protein Kinase G Inhibition
(§2) To measure PKA and PKG1-beta inhibition, IC50 values were determined according to the following protocol:
(§3) Active recombinant human PKG1-beta (full-length, with N-terminal His-tag) was purchased from Millipore GmbH, Schwalbach, Germany. Active recombinant human PKA (residues 1-351, N-terminal His-tag) was obtained from Invitrogen, Karlsruhe, Germany. The peptide substrate, Fluorescein-[…]-COOH, was obtained from JPT Peptide Technologies, Berlin, Germany. Adenosine-5′-triphosphate (ATP), bovine serum albumine (BSA), dimethylsulphoxide (DMSO), 4-(2-Hydroxyethyl)piperazine-1-ethanesulfonic acid (Hepes), Brij-35, dithiothreitol (DTT) and Pluronic F-68 were purchased from Sigma-Aldrich, Munich, Germany. Tris(hydroxymethyl)-aminomethane (Tris), magnesium chloride, NaOH, 1M HCl and EDTA were obtained from Merck Biosciences, Darmstadt, Germany. “Complete” protease inhibitor was from Roche Diagnostics, Mannheim, Germany. Test compounds were diluted to the appropriate concentrations in buffer 1 (25 mM Tris-HCl, pH 7.4, 5 mM MgCl2, 2 mM DTT, 0.02% (w/v) BSA, 0.01% Pluronic F-68 and 3% DMSO). PKG1-beta and PKA were diluted to concentrations of 150 ng/ml and 30 ng/ml, respectively, in buffer 2. The peptide substrate and ATP were diluted to concentrations of 3 μM and 120 μM, respectively, in the buffer 2. Two μl of the compound solution were mixed with 2 μl of the diluted enzyme in a 384-well small volume microtiter plate (Greiner, Bio-One, Frickenhausen, Germany), and the kinase reaction was initiated by addition of 2 μl of the solution containing peptide substrate and ATP. After 60 min incubation at 32° C., the reaction was stopped by addition of 20 μl of a solution containing 100 mM Hepes-NaOH, pH 7.4, 0.015% (v/v) Brij-35, 45 mM EDTA and 0.227% chip coating reagent 1 (Caliper Lifescience Inc, Hopkinton, Mass.). Phosphorylation of the substrate peptide was then detected on a Caliper 3000 instrument essentially as described by Pommereau et al (J. Biomol. Screening 9(5), 409-416, 2004). Separation conditions were as follows: Pressure −1.3 psi, upstream voltage −1562 V, downstream voltage −500 V, sample sip time 200 ms, Positive controls (buffer 1 instead of compound) and negative controls (buffer 1 instead of compound and buffer 2 instead of kinase solution) were run in parallel on each plate. The following products/compounds were tested in said assay by using the respective form (salt or free base) obtained as in the examples described above and the following activities were measured.

The next assay concerns the target T3, recombinant human PKA (Homo sapiens, UniProt P17612).
T3 construct: recombinant human PKA (residues 1-351, N-terminal His-tag); His-tag (N); purchased Invitrogen, Karlsruhe, Germany
The assay is described as follows: Determination of Protein Kinase A inhibition (selectivity). Particulars: from IC50 values. The procedure: as §1, §2, §3

T1 sequence (O75116 11-552): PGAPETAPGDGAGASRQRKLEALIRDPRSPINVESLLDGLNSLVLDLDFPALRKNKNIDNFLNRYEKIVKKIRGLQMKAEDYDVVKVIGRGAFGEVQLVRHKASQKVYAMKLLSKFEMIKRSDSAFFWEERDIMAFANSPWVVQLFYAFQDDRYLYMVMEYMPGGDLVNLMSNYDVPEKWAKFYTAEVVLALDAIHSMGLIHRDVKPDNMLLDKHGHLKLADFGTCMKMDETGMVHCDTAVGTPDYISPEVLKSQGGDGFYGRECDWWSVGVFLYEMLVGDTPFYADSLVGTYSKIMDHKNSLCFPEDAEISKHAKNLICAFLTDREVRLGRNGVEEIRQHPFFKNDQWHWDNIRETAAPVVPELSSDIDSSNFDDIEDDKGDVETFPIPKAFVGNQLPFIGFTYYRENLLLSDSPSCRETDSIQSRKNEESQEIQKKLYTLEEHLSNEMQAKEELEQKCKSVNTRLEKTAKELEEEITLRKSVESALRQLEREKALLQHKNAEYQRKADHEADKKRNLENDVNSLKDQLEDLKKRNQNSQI

As to `CCC(N)[C@]1(C2CCOCC2)CC[C@H](Oc2cc3cc[nH]c(=O)c3cc2Cl)CC1` (mixture of isomers) [Example 1, cis-6-[4-(1-Aminopropyl)-4-(tetrahydropyran-4-yl)-cyclohexyloxy]-7-chloro-2H-isoquinolin-1-one], the concentration for half-maximal inhibition (IC50) in assay [1] was at most 10 nM. In assay [2], the “Selectivity against PKG” value is over 300 fold. Besides, the “Selectivity against PKA” value on recombinant human PKA was over 1000 fold.

For `CCCC1(C(N)C2CC2)CCC(Oc2cc3cc[nH]c(=O)c3cc2Cl)CC1` (single isomer, unassigned) [Example 6, 6-[4-(Amino-cyclopropyl-methyl)-4-propyl-cyclohexyloxy]-7-chloro-2H-isoquinolin-1-one], the IC50 in assay [1] is at most 10 nM. In addition, the “Selectivity against PKG” value in assay [2] is recorded as over 1000 fold. Further, at recombinant human PKA, the “Selectivity against PKA” value was over 1000 fold.

As for `CCC(N)C1(C2CCC2)CCC(Oc2cc3cc[nH]c(=O)c3cc2Cl)CC1` (single isomer, unassigned) [Example 22, 6-[4-(1-Amino-propyl)-4-cyclobutyl-cyclohexyloxy]-7-chloro-2H-isoquinolin-1-one], the IC50 in assay [1] was 10 to 100 nM. Moreover, the “Selectivity against PKG” value in assay [2] is reported as over 100 fold. Moreover, at recombinant human PKA, the “Selectivity against PKA” value is on record as over 300 fold.

For the molecule `CCC(N)C1(CC2CC2)CCC(Oc2cc3cc[nH]c(=O)c3cc2Cl)CC1` (single isomer, unassigned) [Example 12, 6-[4-(1-Amino-propyl)-4-cyclopropyl-methyl-cyclohexyl-oxy]-7-chloro-2H-isoquinolin-1-one], in assay [1], the 50% inhibitory concentration (IC50) is at most 10 nM. Moreover, the “Selectivity against PKG” value in assay [2] is on record as over 300 fold. The “Selectivity against PKA” value at recombinant human PKA was over 1000 fold.

In the case of `CC[C@]1(C(N)CF)CC[C@H](Oc2cc3cc[nH]c(=O)c3cc2Cl)CC1` (stereo partly drawn) [Example 96, trans-6-[4-(1-Amino-2-fluoro-ethyl)-4-ethyl-cyclohexyloxy]-7-chloro-2H-isoquinolin-1-one], the concentration for half-maximal inhibition (IC50) in assay [1] is 10 to 100 nM. For the same molecule, in assay [2], the “Selectivity against PKG” value was over 100 fold. In addition, on recombinant human PKA, the “Selectivity against PKA” value was over 300 fold.

Regarding `CC[C@]1(C(C)N)CC[C@@H](Oc2cc3cc[nH]c(=O)c3cc2C)CC1` (stereo partly drawn) [Example 37, cis-6-[4-(1-Amino-ethyl)-4-ethyl-cyclohexyloxy]-7-methyl-2H-isoquinolin-1-one], the half-inhibitory concentration (IC50) in assay [1] was 10 to 100 nM. The “Selectivity against PKG” value in assay [2] was over 100 fold. Moreover, the “Selectivity against PKA” value at recombinant human PKA is listed as over 300 fold.

As for `CCC(N)[C@]1(C2CC2)CC[C@H](Oc2cc3cc[nH]c(=O)c3cc2Cl)CC1` (stereo partly drawn) [Example 74, cis-6-[4-(1-Amino-propyl)-4-cyclopropyl-cyclohexyloxy]-7-chloro-2H-isoquinolin-1-one], the IC50 in assay [1] is at most 10 nM. Further, in assay [2], the “Selectivity against PKG” value is given as over 1000 fold. The “Selectivity against PKA” value on recombinant human PKA is reported as over 1000 fold.

In the case of `CCC(N)C1(CC2CC2)CCC(Oc2cc3cc[nH]c(=O)c3cc2Cl)CC1` (single isomer, unassigned) [Example 13, 6-[4-(1-Amino-propyl)-4-cyclopropyl-methyl-cyclohexyl-oxy]-7-chloro-2H-isoquinolin-1-one], the half-maximal inhibitory concentration (IC50) in assay [1] is 10 to 100 nM. In addition, the “Selectivity against PKG” value in assay [2] is over 10 fold. Besides, the “Selectivity against PKA” value at recombinant human PKA is given as over 10 fold.

`C[C@]1(C(N)c2ccccc2)CC[C@@H](Oc2cc3cc[nH]c(=O)c3cc2Cl)CC1` (stereo partly drawn) [Example 61, cis-6-[4-(Amino-phenyl-methyl)-4-methyl-cyclohexyloxy]-7-chloro-2H-isoquinolin-1-one]: the IC50 in assay [1] is 10 to 100 nM. In assay [2], the “Selectivity against PKG” value was over 300 fold. In addition, the “Selectivity against PKA” value on recombinant human PKA was over 100 fold.

For `NC(C1CC1)C1(CC2CC2)CCC(Oc2cc3cc[nH]c(=O)c3cc2Cl)CC1` (single isomer, unassigned) [Example 17, 6-[4-(Amino-cyclopropyl-methyl)-4-cyclopropylmethyl-cyclohexyloxy]-7-chloro-2H-isoquinolin-1-one], in assay [1], the half-maximal inhibitory concentration (IC50) is 10 to 100 nM. Besides, the “Selectivity against PKG” value in assay [2] is over 10 fold. The “Selectivity against PKA” value at recombinant human PKA is reported as over 10 fold.

With `CCC(N)C1(C2CCC2)CCC(Oc2cc3cc[nH]c(=O)c3cc2Cl)CC1` (single isomer, unassigned) [Example 23, 6-[4-(1-Amino-propyl)-4-cyclobutyl-cyclohexyloxy]-7-chloro-2H-isoquinolin-1-one], the 50% inhibitory concentration (IC50) in assay [1] is 100 to 1000 nM. Also, in assay [2], the “Selectivity against PKG” value is recorded as over 10 fold. The “Selectivity against PKA” value at recombinant human PKA is given as over 10 fold.

Turning to `CCC1(C(C)N)CCC(Oc2cc3cc[nH]c(=O)c3cc2Cl)CC1` (single isomer, unassigned) [Example 3, 6-[4-(1-Amino-ethyl)-4-ethyl-cyclohexyloxy]-7-chloro-2H-isoquinolin-1-one], in assay [1], the 50% inhibitory concentration (IC50) is at most 10 nM. Moreover, in assay [2], the “Selectivity against PKG” value is reported as over 1000 fold. Further, the “Selectivity against PKA” value at recombinant human PKA is on record as over 1000 fold.

For `CCC(N)C1(C)CCC(Oc2cc3cc[nH]c(=O)c3cc2Cl)CC1` (single isomer, unassigned) [Example 27, 6-[4-(1-Amino-propyl)-4-methyl-cyclohexyloxy]-7-chloro-2H-isoquinolin-1-one], in assay [1], the 50% inhibitory concentration (IC50) was 10 to 100 nM. In assay [2], the “Selectivity against PKG” value was over 1000 fold. Further, the “Selectivity against PKA” value at recombinant human PKA was over 1000 fold.

What is called IC50 is the concentration needed to halve the response being measured.
